The assay deals with KB. Description: Cytotoxicity against human KB cells. In kind it is functional. As to conditions: read-out: ED50 (the source's name).

In brackets after ≈: the same amount, converted by molar mass.

On to `COc1cc([C@@H]2c3cc4c(c(OC)c3C[C@H]3COC(=O)[C@@H]32)OCO4)cc(OC)c1OC`, for which the EC50 was determined as 0.026 µg/mL (≈ 0.0607 µM).

The values above are taken from ChEMBL document CHEMBL1151348, “Plant anticancer agents. X. Lignans from Juniperus phoenicea” (1980).
